{"source": "patent US11179348B2", "about": "“Combination comprising pterostilbene for the treatment of cancer” (FUNDACIÓN UNIVERSIDAD CATÓLICA DE VALENCIA SAN VICENTE …, priority 2015, dated 2021)", "key": {"[1]": {"test_system": "MCF-7 breast adenocarcinoma", "experiment": "In vivo growth of MCF-7 breast cancer xenografts", "parameters": "species or system human", "conditions": "MCF-7, day 28"}, "[2]": {"test_system": "glucocorticoid receptors (GR)", "experiment": "GR content of human cancer cells by [3H]-labeled ligand whole-cell binding assay"}, "[3]": {"test_system": "CRH mRNA", "experiment": "CRH expression in the hypothalamic PVN (in situ hybridization)", "assay_type": "in vivo", "conditions": "melanoma-bearing mice; significant in MeWo- and MelJuso-bearing mice", "description": "CRH Expression in the Brain (In Situ Hybridization).\nSections of 10 μm of the PVN were cut according to a mouse brain atlas (Allen Institute for brain science, http://www.brain-map.org) on a cryostat, mounted on polysine microscope slides (Menzel-Glazer, Braunschweig, Germany), and stored at −80° C. for 24 h. Then sections were fixed in 4% paraformaldehyde, further permeabilized by proteinase K treatment, acetylated twice with 0.25% acetic anhydride in 0.1 M triethanolamine, and dehydrated in a graded ethanol series. Hybridization, carried out as described before (Lachize, S. et al. Proc Natl Acad Sci USA 106, 8038-8042 (2009)), was performed using specific 48-mer, ^35S-labeled oligonucleotide probes for murine CRH mRNA (5′-GGCCCGCGGCGCTCCAGAGACGGATCCCCTGCTCAGCAGGGCCCTGCA-3′) (SEQ ID NO: 1). Hybridized slices were exposed to BioMax MR film (Kodak, Rochester, N.Y.). The mRNA expression of CRH in the PVN was quantified as gray density minus background in digitized images using the NIH ImageJ 1.6 program (http://rsb.info.nih.gov/ij). Bilateral measures were taken from two to four PVN sections for each mouse, which were pooled to provide individual means per mouse. For tissue background, the optical density of a nonhybridized region outside the PVN was measured."}, "[4]": {"experiment": "Pter and metabolite levels in plasma, tumor, brain and pituitary after i.v. administration (LC-MS/MS)", "assay_type": "in vivo, mice", "conditions": "for highest concentration in plasma / highest concentration in tumors: 5 min after i.v. 30 mg Pter/kg", "description": "Determination of Pter and its Metabolites by High-Pressure Liquid Chromatography and Mass Spectrometry (LC-MS/MS).\nLC-MS/MS was carried out, as previously described (Ferrer, P. et al. Neoplasia 7, 37-47 (2005); Azzolini, M. et al. Mol Nutr Food Res 58, 2122-2132 (2014)) in detail, using a TSQ Vantage™ Triple Quadrupole Mass Spectrometer (Thermo Scientific, Waltham, Mass.) equipped with a Shimadzu LC-10ADvp. pump and a SLC-10Avp. controller system with a SIL-10ADvp. autoinjector."}}, "note": "Like-named read-outs stand apart in the source and are kept apart here.", "data": [{"smiles": "COc1cc(/C=C/c2ccc(O)cc2)cc(OC)c1", "note": "[Pter, trans-3,5-dimethoxy-4′-hydroxystilbene]", "values": [{"measurement": "Tumor vol.", "setting": "[1]", "value": "689 ± 153", "unit": "mm^3"}, {"measurement": "GR number", "setting": "[2]; A549, day 35", "value": "41 ± 10 10^3 GR/cell"}, {"measurement": "GR number (binding sites/cell)", "setting": "[2]; A2058-RFP tumors, day 35", "value": "71 ± 5 10^3 GR/cell"}, {"measurement": "GR number (binding sites/cell)", "setting": "[2]; AsPC-1-RFP tumors, day 28", "value": "63 ± 10 10^3 GR/cell"}, {"measurement": "GR number (binding sites/cell)", "setting": "[2]; BxPC-3-RFP tumors, day 35", "value": "115 ± 27 10^3 GR/cell"}, {"measurement": "GR number", "setting": "[2]; Caco-2, day 28", "value": "7 ± 2 10^3 GR/cell"}, {"measurement": "GR number", "setting": "[2]; HT-29, day 21", "value": "14 ± 3 10^3 GR/cell"}, {"measurement": "GR number", "setting": "[2]; HepG2, day 35", "value": "45 ± 11 10^3 GR/cell"}, {"measurement": "GR number", "setting": "[2]; LNCaP, day 49", "value": "3 ± 1 10^3 GR/cell"}, {"measurement": "GR number", "setting": "[2]; MCF-7, day 28", "value": "<1 10^3 GR/cell"}, {"measurement": "GR number", "setting": "[2]; MDA-MB-231, day 35", "value": "18 ± 3 10^3 GR/cell"}, {"measurement": "GR number (binding sites/cell)", "setting": "[2]; MeWo-RFP tumors, day 35", "value": "45 ± 6 10^3 GR/cell"}, {"measurement": "GR number (binding sites/cell)", "setting": "[2]; MelJuso-RFP tumors, day 35", "value": "47 ± 4 10^3 GR/cell"}, {"measurement": "GR number", "setting": "[2]; PC-3, day 21", "value": "21 ± 6 10^3 GR/cell"}, {"measurement": "GR number", "setting": "[2]; SK-OV-3, day 49", "value": "25 ± 7 10^3 GR/cell"}, {"measurement": "CRH mRNA expression in the hypothalamic PVN", "setting": "[3]", "value": "further decrease"}, {"measurement": "approx. mean level in the hypophysis", "setting": "[4]; 10-30 min after i.v. 30 mg/kg", "value": "~15", "unit": "µM"}, {"measurement": "level in whole brain", "setting": "[4]; 60 min after i.v. 30 mg/kg", "value": "approx. 1 nmol/g"}, {"measurement": "level in whole brain", "setting": "[4]; 120 min after i.v. 30 mg/kg", "value": "non-detectable levels"}, {"measurement": "highest concentration in plasma", "setting": "[4]; A2058-bearing mice", "value": "112 ± 17", "unit": "µM"}, {"measurement": "highest concentration in tumors", "setting": "[4]; A2058 tumors", "value": "28 ± 7", "unit": "µM"}, {"measurement": "highest concentration in tumors", "setting": "[4]; MeWo tumors", "value": "33 ± 7", "unit": "µM"}, {"measurement": "highest concentration in plasma", "setting": "[4]; MeWo-bearing mice", "value": "116 ± 23", "unit": "µM"}, {"measurement": "highest concentration in tumors", "setting": "[4]; MelJuso tumors", "value": "25 ± 7", "unit": "µM"}, {"measurement": "highest concentration in plasma", "setting": "[4]; MelJuso-bearing mice", "value": "98 ± 13", "unit": "µM"}, {"measurement": "levels in plasma after the last time point", "setting": "[4]; after 480 min", "value": "undetectable"}, {"measurement": "levels in the hypophysis compared with the whole brain", "setting": "[4]; after i.v. 30 mg/kg", "value": "significantly higher"}, {"measurement": "lowest concentration in plasma", "setting": "[4]; at 240-480 min after i.v. 30 mg Pter/kg", "value": "approx. 1 μM"}, {"measurement": "half-life", "setting": "[4]; female, nu/nu nude, mouse, melanoma tumor, iv, 30 mg/kg, melanoma tumors, 30 mg Pter/kg i.v., read-out: half-life in the melanoma tumors", "value": "36 to 40", "unit": "min"}, {"measurement": "half-life", "setting": "[4]; female, nu/nu nude, mouse, plasma, iv, 30 mg/kg, B16-F1-bearing mice, Pter 30 mg/kg i.v., read-out: half-life in circulating plasma", "value": 61.2, "unit": "min"}, {"measurement": "half-life", "setting": "[4]; female, nu/nu nude, mouse, plasma, iv, 30 mg/kg, melanoma-bearing mice, 30 mg Pter/kg i.v., read-out: half-life in circulating plasma", "value": "70 to 73", "unit": "min"}, {"measurement": "half-life", "setting": "[4]; female, nu/nu nude, mouse, tumor (B16-F1), iv, 30 mg/kg, B16-F1 tumors, Pter 30 mg/kg i.v., read-out: half-life in the tumors", "value": 29.3, "unit": "min"}, {"measurement": "concentration at 180 min", "setting": "[4]; female, nu/nu nude, mouse, tumor, iv, 30 mg/kg, at 180 min after i.v. 30 mg Pter/kg, read-out: lowest concentration in tumors", "value": "~1000", "unit": "nM"}, {"measurement": "approximate mean concentration within the tumor", "setting": "[4]; first hour after i.v. 30 mg Pter/kg", "value": "~15", "unit": "µM"}, {"measurement": "main Pter-derived metabolite generated in vivo (plasma)", "setting": "[4]; i.v. 30 mg Pter/kg", "value": "pterostilbene-4′-sulfate (Pter-S)"}]}]}
